Measured values as given in publication doi:10.1101/2022.10.08.511437v2 (biorxiv, 2023).

Tests used:
[1] = target: T1, full-length elephant shark GR (Callorhinchus milii, UniProt V9KGN8); test: cell-based; design: species or system HEK293
T1 sequence (V9KGN8 1-704): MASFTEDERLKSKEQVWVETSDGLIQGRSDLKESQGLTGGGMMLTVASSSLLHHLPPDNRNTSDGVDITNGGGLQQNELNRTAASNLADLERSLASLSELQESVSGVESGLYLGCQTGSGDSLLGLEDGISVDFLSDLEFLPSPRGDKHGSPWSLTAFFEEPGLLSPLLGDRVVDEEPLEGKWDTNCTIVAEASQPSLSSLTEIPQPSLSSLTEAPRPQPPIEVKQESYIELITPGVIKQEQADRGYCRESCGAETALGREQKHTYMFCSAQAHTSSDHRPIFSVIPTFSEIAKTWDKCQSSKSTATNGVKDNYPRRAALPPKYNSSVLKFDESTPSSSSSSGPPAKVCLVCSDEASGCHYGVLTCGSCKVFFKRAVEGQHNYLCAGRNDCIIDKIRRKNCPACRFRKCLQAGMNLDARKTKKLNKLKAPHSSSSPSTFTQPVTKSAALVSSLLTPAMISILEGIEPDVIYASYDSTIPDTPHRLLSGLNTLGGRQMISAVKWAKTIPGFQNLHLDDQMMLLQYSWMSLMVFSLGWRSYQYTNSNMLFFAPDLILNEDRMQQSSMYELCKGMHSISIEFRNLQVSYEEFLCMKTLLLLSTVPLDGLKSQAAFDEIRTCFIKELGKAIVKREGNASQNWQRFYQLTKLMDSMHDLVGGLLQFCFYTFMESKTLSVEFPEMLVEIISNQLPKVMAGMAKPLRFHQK

[2] = target: T1, full-length elephant shark GR; test: cell-based; design: species or system HEK293; remark: listed apart in the source
[3] = target: T1, full-length elephant shark GR; test: luciferase reporter transactivation in HEK293 cells; assay type: cell-based
[4] = target: T2, full-length elephant shark MR (Callorhinchus milii, UniProt A0A4W3I5J5); test: cell-based; design: species or system HEK293
T2 sequence (A0A4W3I5J5 1-956): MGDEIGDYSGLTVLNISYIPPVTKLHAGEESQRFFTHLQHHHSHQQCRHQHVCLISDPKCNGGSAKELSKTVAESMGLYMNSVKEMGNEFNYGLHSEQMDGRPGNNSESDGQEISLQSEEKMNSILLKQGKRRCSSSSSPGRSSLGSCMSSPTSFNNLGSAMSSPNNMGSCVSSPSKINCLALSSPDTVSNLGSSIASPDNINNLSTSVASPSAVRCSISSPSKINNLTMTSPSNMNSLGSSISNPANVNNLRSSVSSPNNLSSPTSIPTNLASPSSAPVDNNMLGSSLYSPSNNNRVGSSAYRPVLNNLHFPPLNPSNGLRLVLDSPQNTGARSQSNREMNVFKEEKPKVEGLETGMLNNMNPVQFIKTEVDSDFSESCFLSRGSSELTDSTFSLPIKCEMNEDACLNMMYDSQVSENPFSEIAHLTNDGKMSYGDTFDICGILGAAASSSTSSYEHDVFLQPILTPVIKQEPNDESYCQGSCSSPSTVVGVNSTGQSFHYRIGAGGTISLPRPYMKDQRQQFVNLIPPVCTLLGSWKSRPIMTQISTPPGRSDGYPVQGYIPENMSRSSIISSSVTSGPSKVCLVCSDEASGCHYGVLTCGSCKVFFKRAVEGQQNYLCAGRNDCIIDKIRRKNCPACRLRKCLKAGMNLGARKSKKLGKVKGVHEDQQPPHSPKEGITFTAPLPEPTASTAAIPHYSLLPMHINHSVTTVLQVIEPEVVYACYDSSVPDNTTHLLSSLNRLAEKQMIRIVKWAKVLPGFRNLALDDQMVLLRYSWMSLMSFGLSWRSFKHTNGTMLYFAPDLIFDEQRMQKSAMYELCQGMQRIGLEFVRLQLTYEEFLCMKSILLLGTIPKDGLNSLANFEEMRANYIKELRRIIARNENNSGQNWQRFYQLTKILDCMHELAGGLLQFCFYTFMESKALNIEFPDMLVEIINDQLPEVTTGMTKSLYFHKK

SMILES | EC50 [1] | EC50 [2] | EC50 [3] | EC50 [4]
C[C@]12CC[C@H]3[C@@H](CCC4=CC(=O)CC[C@@]43C)[C@@H]1CC[C@@H]2C(=O)CO [11-deoxycorticosterone] | 11.2 nM | 11 nM | – | –
C[C@]12CCC(=O)C=C1CC[C@@H]1[C@@H]2CC[C@@]2(C)[C@H]1CC[C@]2(O)C(=O)CO [11-deoxycortisol] | – | – | 289 nM | 0.2 nM
C[C@]12CCC(=O)C=C1CC[C@@H]1[C@@H]2[C@@H](O)C[C@]2(C=O)[C@@H](C(=O)CO)CC[C@@H]12 [aldosterone] | – | – | – | 0.08 nM
C[C@]12C[C@H](O)[C@H]3[C@@H](CCC4=CC(=O)CC[C@@]43C)[C@@H]1CC[C@@H]2C(=O)CO [corticosterone] | – | – | – | 1 nM
C[C@]12CCC(=O)C=C1CC[C@@H]1[C@@H]2[C@@H](O)C[C@@]2(C)[C@H]1CC[C@]2(O)C(=O)CO [cortisol] | – | – | – | 2.4 nM
